From US8076375B2 (priority 2005, dated 2011)
Where “and” joins values, the source holds several entries; their conditions need not be identical. Equal entries are not always repeated. Entries after “also recorded” stand apart in the source; their conditions may differ. Where two headings read alike, the source gives them in different places.

Tests used:
[1] = target: vaccinia virus B1 kinase (GST-B1) (Vaccinia virus, UniProt P20505); assay: biochemical; assay type: biochemical; settings: for inhibition at 10 µM: read-out: Inhibition of GST-B1 (of the control value); for remaining activity at 10 µM: read-out: Percent activity remaining at 10 μM, B1
[2] = test system: Lck (activated F505 form); assay type: biochemical; settings: for Effect on Lck activity (in words): 10 μM
wild-type vaccinia virus = assay: microbe, parasite or virus in culture; assay type: cell-based; settings: for inhibition at 100 µM: Orthopoxvirus vaccinia, HeLa
[3] = mouse, in vivo, cited from earlier work
[4] = test system: vesicular stomatitis virus (VSV); assay type: cell-based
[5] = test system: ts2 and ts25 vaccinia virus mutants; assay type: cell-based

In the case of `CN[C@@H]1C[C@H]2O[C@@](C)([C@@H]1OC)n1c3ccccc3c3c4c(c5c6ccccc6n2c5c31)C(=O)NC4` [staurosporine, reference compound], the “Effect on B1 kinase activity in vitro (in words)” value (from here on “Effect on B1 kinase activity”) [1] is reported as “inhibited B1 or F10 kinase”.
With `O=C(O)C=Cc1c2ccc(=O)c(O)c-2oc2c(O)c(O)ccc12` [Compound 119911-V, 3-(4,5,6-trihydroxy-3-oxo-xanthen-9-yl)prop-2-enoic acid] the “Percent Lck activity remaining” value [2] was 70%, the IC50 [1] was 3000 nM and the inhibition at 10 µM [1] was ≥ 87%. For the same compound, the remaining activity at 10 µM [1] was 0%, the “Effect on virus growth in HeLa cell culture (in words)” value (“Effect on virus growth” for short) (wild-type vaccinia virus) was “no apparent effect” and the “Toxic effects in mammals” value [3] was “no toxic effects were observed”.
In the case of `Nc1nc(N)c(/N=N/c2ccc(C(=O)O)c(O)c2)c(N)n1` [Compound 117285-R, 2-hydroxy-4-(2,4,6-triaminopyrimidin-5-yl)diazenyl-benzoic acid], the “Percent Lck activity remaining” value [2] is reported as 76 ± 25%, the IC50 [1] is reported as 1000 nM and the inhibition at 10 µM [1] is reported as ≥ 87%. For the same compound, the remaining activity at 10 µM [1] was 4 ± 2% and the “Effect on virus growth” value (wild-type vaccinia virus) was “no apparent effect”.
In the case of `O=C(O)c1cc2c(cc1S(=O)(=O)O)C1C(C3C2C2(Cl)C(Cl)=C(Cl)C3(Cl)C2(Cl)Cl)C2(Cl)C(Cl)=C(Cl)C1(Cl)C2(Cl)Cl` (stereo not drawn) [Compound 270718-R, 3-sulfo-2-naphthoic acid-bis(hexachlorocyclopentadiene) adduct], the “Percent Lck activity remaining” value [2] is reported as 86 ± 46%, the IC50 [1] is reported as 2500 nM and the inhibition at 10 µM [1] is reported as ≥ 87%. For the same compound, the remaining activity at 10 µM [1] was 12 ± 14%, the “Activity under reduced-serum conditions relative to 10% serum” value (wild-type vaccinia virus) was “approximately four-fold” and the “Effect on growth of wild-type vaccinia virus (in words)” value (wild-type vaccinia virus) was “inhibited the growth”. The “Effect on growth of wild-type vaccinia virus, FIG. 1 (in words)” value (wild-type vaccinia virus) was “inhibited the growth”, the “Inhibition of growth of wild-type vaccinia virus” value (wild-type vaccinia virus) was 90% and 99% and the inhibition at 100 µM (wild-type vaccinia virus; read-out: Inhibition of growth of wild-type vaccinia virus, example of FIG. 1) was 93%. For the same compound, the inhibition at 100 µM (wild-type vaccinia virus; read-out: Inhibition of wild-type vaccinia virus) was 84%, the “Effect on growth of VSV (in words)” value [4] was “essentially no effect” and the “Effect on growth of VSV, FIG. 1 (in words)” value [4] was “not the growth of VSV”. For the same compound, the “Inhibition of growth of VSV (in words)” value [4] was “slight”, the “Effect on growth of ts2 and ts25 mutant viruses (in words)” value [5] was “reproducibly inhibited the growth” and the “Effect on growth of ts2 and ts25 vaccinia virus, FIG. 1 (in words)” value [5] was “inhibited the growth”. For the same compound, the “Inhibition of growth of ts2 and ts25, single experiment (FIG. 1)” value ([5]; 100 µM) was 99%, the “Inhibition of growth of vaccinia virus over 24 hours” value ([5]; 100 µM) was 86-99% and the “Effect on growth of human Ramos B cells” value (human Ramos B cells) was “no effect”. The Toxicity in mice ([3]; 200 mg/kg) was “No toxicity” and the “Toxic effects in mammals” value [3] was “no toxic effects were observed”.
In the case of `CCc1c(O)c2c(c(O)c1C(C)=O)C(=O)c1c(cc(O)c(C(=O)O)c1C(=O)O)C2=O` [Compound 170008-Y, 2-acetyl-7,8-bis(dihydroxymethylidene)-3-ethyl-9-hydroxy-anthracene-1,4,6,10-tetrone], the “Percent Lck activity remaining” value [2] is reported as 81%, the IC50 [1] is reported as 2500 nM and the inhibition at 10 µM [1] is reported as ≥ 87%. The remaining activity at 10 µM [1] was 12% and the “Effect on virus growth” value (wild-type vaccinia virus) was “no apparent effect”.
For `O=C(O)C1CCCCC1c1c2ccc(=O)c(O)c-2oc2c(O)c(O)ccc12` (stereo not drawn) [Compound 119910-U, 2-(4,5,6-trihydroxy-3-oxo-xanthen-9-yl)cyclohexane-1-carboxylic acid], the “Percent Lck activity remaining” value [2] was 59%, the “Effect on Lck activity (in words)” value [2] was “minimally inhibited” and the IC50 [1] was 3500 nM. For the same compound, the inhibition at 10 µM [1] was ≥ 87%, the remaining activity at 10 µM [1] was 0% and the “Effect on virus growth” value (wild-type vaccinia virus) was “no apparent effect”. For the same compound, the “Toxic effects in mammals” value [3] was “no toxic effects were observed”.
With `O=C(O)CCc1c2ccc(=O)c(O)c-2oc2c(O)c(O)ccc12` [Compound 119915-Z, 3-(4,5,6-trihydroxy-3-oxo-xanthen-9-yl)propanoic acid] the “Percent Lck activity remaining” value [2] was 78%, the IC50 [1] was 3000 nM and the inhibition at 10 µM [1] was ≥ 87%. The remaining activity at 10 µM [1] was 1%, the “Effect on virus growth” value (wild-type vaccinia virus) was “no apparent effect” and the “Toxic effects in mammals” value [3] was “no toxic effects were observed”.
In the case of “2-methylnaphthalene-bis(hexachlorocyclopentadiene) adduct [reference compound]”, the “Effect on growth of ts2 and ts25 vaccinia virus, FIG. 1 (in words)” value [5] is reported as “did not inhibit” and the “Effect on growth of ts2 or ts25 vaccinia virus (in words)” value [5] is reported as “no effect”.
For `O=C(O)c1cccc(/N=N/c2c(S(=O)(=O)O)ccc3c2C(=O)c2ccccc2C3=O)c1O` [Compound 125908-P, 3-(9,10-dioxo-2-sulfo-anthracen-1-yl)diazenyl-2-hydroxy-benzoic acid], the “Percent Lck activity remaining” value [2] was 53%, the “Effect on Lck activity (in words)” value [2] was “minimally inhibited” and the remaining activity at 10 µM [1] was 23%. For the same compound, the “Effect on virus growth” value (wild-type vaccinia virus) was “no apparent effect”.
For `O=S(=O)(O)c1ccc(NN(c2c(O)ccc3ccccc23)S(=O)(=O)O)cc1` [Compound 9600-Q, 4-[N′-(2-hydroxynaphthalen-1-yl)-N′-sulfo-hydrazino]benzenesulfonic acid], the “Percent Lck activity remaining” value [2] was 53 ± 18%, the “Effect on Lck activity (in words)” value [2] was “minimally inhibited” and the “Effect on B1 kinase activity” value [1] was “inhibiting B1 almost not at all”. The remaining activity at 10 µM [1] was 93 ± 2% and the “Effect on virus growth” value (wild-type vaccinia virus) was “no apparent effect”.
For `CC1C2C=CC1C(c1c3ccc(=O)c(O)c-3oc3c(O)c(O)ccc13)C2C(=O)O` (stereo not drawn) [Compound 119913-X, 7-methyl-6-(4,5,6,-trihydroxy-3-oxo-xanthen-9-yl)-bicyclo[2.2.1]hetp-2-ene-5-carboxylic acid], the “Percent Lck activity remaining” value [2] was 56%, the “Effect on Lck activity (in words)” value [2] was “minimally inhibited” and the IC50 [1] was 2500 nM. For the same compound, the inhibition at 10 µM [1] was ≥ 87%, the remaining activity at 10 µM [1] was 1% and the “Effect on growth of wild-type vaccinia virus (in words)” value (wild-type vaccinia virus) was “inhibited the growth”. For the same compound, the “Effect on growth of ts2 and ts25 mutant viruses (in words)” value [5] was “reproducibly inhibited the growth” and the “Toxic effects in mammals” value [3] was “no toxic effects were observed”.
For `O=C(O)C=Cc1ccc[c]([Sb](=[O])([OH])[OH])c1` [Compound 13778-J, 3-(3-stibonophenyl)prop-2-enoic acid], the “Percent Lck activity remaining” value [2] was 79 ± 9%, the “Effect on B1 kinase activity” value [1] was “inhibiting B1 almost not at all; also recorded: stimulated B1 in vitro” and the “Effect on growth of wild-type vaccinia virus (in words)” value (wild-type vaccinia virus) was “inhibited the growth”.
In the case of `O=C1c2ccccc2C(=O)c2c(NC3CCCCC3)ccc(Nc3ccc(S(=O)(=O)O)cc3)c21` [Compound 128437-O, 4-(4-cyclohexylamino-9,10-dioxo-anthracen-1-yl)aminobenzenesulfonic acid], the “Percent Lck activity remaining” value [2] is reported as 88%, the remaining activity at 10 µM [1] is reported as 47% and the “Effect on growth of wild-type vaccinia virus (in words)” value (wild-type vaccinia virus) is reported as “inhibited the growth”.
